This is an account of results in US20010056184A1, “Pipecolinic acid derivatives, method of manufacturing the same and therapeutic agents containing these compounds” (priority 2000, published 2001).

What is called IC50 is the concentration that gives 50% inhibition. The inhibition is the change of the read-out against control, counted positive when it falls.

Common to all, as to format: biochemical
Experiment [1] has as its target T1, MMP-2 (gelatinase A) (Homo sapiens, UniProt P08253).
T1 construct: made in house; host or cells: COS-1 cells (secreted into culture medium)
T1 sequence (P08253 110-660): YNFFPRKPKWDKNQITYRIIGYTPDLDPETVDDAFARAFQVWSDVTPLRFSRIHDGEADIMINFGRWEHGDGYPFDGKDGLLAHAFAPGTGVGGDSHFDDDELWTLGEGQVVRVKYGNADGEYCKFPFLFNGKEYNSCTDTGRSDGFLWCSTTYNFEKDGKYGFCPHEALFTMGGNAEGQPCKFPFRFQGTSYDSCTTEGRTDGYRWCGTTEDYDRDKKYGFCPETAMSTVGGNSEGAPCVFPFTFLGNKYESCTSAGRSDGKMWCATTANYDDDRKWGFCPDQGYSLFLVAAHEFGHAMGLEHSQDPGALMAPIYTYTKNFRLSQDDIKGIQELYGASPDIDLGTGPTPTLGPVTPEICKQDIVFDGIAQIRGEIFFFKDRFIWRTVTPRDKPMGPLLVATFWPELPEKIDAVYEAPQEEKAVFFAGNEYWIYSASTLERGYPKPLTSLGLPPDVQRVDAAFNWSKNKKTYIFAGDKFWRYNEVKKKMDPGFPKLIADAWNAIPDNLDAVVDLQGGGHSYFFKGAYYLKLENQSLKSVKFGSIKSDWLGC
The experiment can be described thus: MMP-2 (gelatinase A) inhibitory activities, fluorogenic substrate enzyme assay. The settings on record: 42° C., 2 h, substrate 10 μM. The procedure: (§1) Examination 2: MMP-2 (gelatinase A) and MMP-9 (gelatinase B) inhibitory activities.
(§2) Pro MMP-2 was obtained from culture medium separated from human pro-MMP-2 cDNA tranfected COS-1 cells. Pro MMP-2 activated by 1 mM (4-aminophenyl) mercury acetic acid and MMP-9, derived human fibrosarcome (Yagai Co. Ltd.), were used as enzyme respectively. Inhibition of both enzyme activities were estimated by enzyme assay using MOCAc-Pro-Leu-Gly-Leu-A2pr(Dnp)-Ala-Arg-NH2 (Peptide Research Center, 3163-v) as substrate. Thus, MMP-2 or MMP-9 (0.01 U/ml), test compound (several concentrations), and the substrate (10 μM) were incubated in 50 mM Tris - HCl buffer (pH 7.4) containing 0.2M NaCl, 10 mM CaCl2, 0.02% NaN3, and 0.05% Brij 35 at 42° C. for 2 h (MMP-2), 3 h (MMP-9) respectively. Inhibition of degradation of substrate in the presence of compound was determined by comparison with the degradation of substrate in the absence of compound, and concentration of 50% inhibition (IC50 value) was calculated.

The target in experiment [2] is T2, Δ MT1-MMP (Δ MMP-14) (Homo sapiens, UniProt P50281).
T2 construct: ProMT1-MMP cDNA encoded extracellular domain of pro Δ MT1-MMP was tranfected E. coli BL21DE3; made in house; host or cells: E. coli BL21DE3 (inclusion bodies, 8M urea, ion exchange)
The experiment can be described thus: Δ MT1-MMP (Δ MMP-14) inhibitory activities, fluorogenic substrate enzyme assay. As to conditions: 37° C., 30 min, substrate 10 μM; read-out: ΔMMP-14 IC50. The text has this:
Examination 3: Δ MT1-MMP (Δ MMP-14) inhibitory activities.
ProMT1-MMP cDNA encoded extracellular domain of pro Δ MT1-MMP was tranfected E. coli BL21DE3, pro Δ MT1-MMP collected as inclusion body was solved using 8M urea, and it was pulified by ion exchenge column chlomatography. Inhibition of enzyme activities were estimated by enzyme assay using activated Δ MT1-MMP, obtained from activation of pro Δ MT1-MMP by 10 μ/ml tripsine, and MOCAc-Pro-Leu-Gly-Leu-A2pr(Dnp)-Ala-Arg-NH2 (Peptide Research Center, 3163-v) as substrate. Thus, Δ MT1-MMP, test compound (several concentrations), and the substrate (10 μM) were incubated in 50 mM Tris - HCl buffer (pH 7.4) containing 0.2M NaCl, 10 mM CaCl2, 0.02% NaN3, 0.05% Brij 35, and 10 μM leuipeputine at 37° C. for 30 min. The reaction was stopped by adding of 4 volumes of sodium acetate buffer (pH 4.0), and the degradation of substrate was calculated by measurement with a fluorescence intensity (λ ex 328 nm, λ em 393 nm). Inhibition of degradation of substrate in the presence of compound was determined by comparison with the degradation of substrate in the absence of compound, and concentration of 50% inhibition (IC50 value) was calculated.

Experiment [3] has as its target T3, MMP-9 (gelatinase B) (Homo sapiens, UniProt P14780).
T3 construct: MMP-9, derived human fibrosarcome (Yagai Co. Ltd.), were used as enzyme respectively; purchased Yagai Co. Ltd; host or cells: human fibrosarcoma
The experiment can be described thus: MMP-9 (gelatinase B) inhibitory activities, fluorogenic substrate enzyme assay. The settings on record: for IC50: 42° C., 3 h, substrate 10 μM. The procedure:
as §1, §2

Experiment [4] addresses T4, human fibroblasts derived MMP-1 (type I collagenase) (Homo sapiens, UniProt P03956).
T4 construct: human fibroblasts derived MMP-1 (Yagai Co. Ltd.) as enzyme; purchased Yagai Co. Ltd; host or cells: human fibroblasts
T4 sequence (P03956 100-469): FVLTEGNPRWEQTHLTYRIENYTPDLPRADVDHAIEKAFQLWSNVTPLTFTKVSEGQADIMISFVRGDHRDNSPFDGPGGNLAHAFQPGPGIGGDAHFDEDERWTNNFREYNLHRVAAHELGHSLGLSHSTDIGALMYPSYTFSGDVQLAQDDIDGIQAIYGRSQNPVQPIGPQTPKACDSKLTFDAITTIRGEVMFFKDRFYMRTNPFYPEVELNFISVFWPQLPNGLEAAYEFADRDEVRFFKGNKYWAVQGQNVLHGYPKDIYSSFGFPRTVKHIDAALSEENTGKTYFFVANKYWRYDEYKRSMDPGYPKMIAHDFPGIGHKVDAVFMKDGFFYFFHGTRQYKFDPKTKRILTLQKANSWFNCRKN
The experiment can be described thus: MMP-1 (type I collagenase) inhibitory activities, fluorogenic substrate enzyme assay. The settings on record: for inhibition at 10 µM: at 10^−5M, NE means no effect, read-out: MMP-1 inhibition percent; for IC50: 37° C., 4 h, substrate 10 μM. How it is done:
Examination 1: MMP-1 (type I collagenase) inhibitory activities.
Inhibitory activities of MMP-1 (type I collagenase) activities were estimated by enzyme assay using human fibroblasts derived MMP-1 (Yagai Co. Ltd.) as enzyme, and MOCAc-Pro-Leu-Gly-Leu-A2pr(Dnp)-Ala-Arg-NH2 (Peptide Research Center, 3163-v) as substrate. Thus, MMP-1 (0.01 U/ml), test compound (10^−10˜10^−5 M), and the substrate (10 μM) were incubated in 50 mM Tris-HCl buffer (pH 7.4) containing 0.2M NaCl, 10 mM CaCl2, 0.02% NaN3, and 0.05% Brij 35 at 37° C. for 4 h. The reaction was stopped by adding of 4 volumes of sodium acetate buffer (pH 4.0), and the degradation of substrate was calculated by measurement with a fluorescence intensity (λ ex 328 nm, λ em 393 nm). Inhibition of degradation of substrate in the presence of compound was determined by comparison with the degradation percent of substrate in the absence of compound, and concentration of 50% inhibition (IC50 value) was calculated.

T3 sequence (P14780 94-707): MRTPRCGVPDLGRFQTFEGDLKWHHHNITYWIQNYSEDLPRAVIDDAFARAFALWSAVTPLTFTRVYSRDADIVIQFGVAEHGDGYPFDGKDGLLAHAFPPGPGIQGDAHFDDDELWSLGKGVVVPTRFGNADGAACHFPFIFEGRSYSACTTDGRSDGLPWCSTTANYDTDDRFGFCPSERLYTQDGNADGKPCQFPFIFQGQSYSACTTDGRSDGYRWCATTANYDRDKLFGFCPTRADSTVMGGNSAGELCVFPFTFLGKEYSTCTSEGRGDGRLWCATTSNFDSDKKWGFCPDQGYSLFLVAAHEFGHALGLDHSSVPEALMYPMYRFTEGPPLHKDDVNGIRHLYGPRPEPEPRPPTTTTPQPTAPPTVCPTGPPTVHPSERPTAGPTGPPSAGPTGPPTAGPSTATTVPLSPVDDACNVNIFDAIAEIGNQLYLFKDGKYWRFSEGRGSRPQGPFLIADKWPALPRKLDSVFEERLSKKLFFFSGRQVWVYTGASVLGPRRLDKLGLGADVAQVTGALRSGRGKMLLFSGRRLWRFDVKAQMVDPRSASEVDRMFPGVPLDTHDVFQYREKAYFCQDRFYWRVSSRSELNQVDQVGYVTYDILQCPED

For the compound `COc1ccc(S(=O)(=O)N2CC[C@@H](NC(=O)CCC(C)C)C[C@@H]2C(=O)NO)cc1` [Compound 45, (2R, 4R)-2-Hydroxyaminocarbonyl-1-(4-methoxybenzenesulfonyl)-4-(4-methylpentanoylamino)-piperidine], the IC50 in experiment [1] is 1.7 nM; in experiment [2] it was 16 nM; in experiment [3], 1.4 nM. In addition, the inhibition at 10 µM in experiment [4] was determined as 45.3%.

Take `CC(C)CCC(=O)N[C@@H]1CCN(S(=O)(=O)c2cccs2)[C@@H](C(=O)NO)C1` [Compound 51, (2R, 4R)-2-Hydroxyaminocarbonyl-4-(4-methylpentanoylamino)-1-(2-thiophenesulfonyl)-piperidine]: the IC50 in experiment [1] amounted to 80 nM; in experiment [2] it was 31 nM; in experiment [3], 75 nM; in experiment [4], 6.5 nM.

For `COc1ccc(-c2ccc(S(=O)(=O)N3CC[C@@H](NC(=O)c4c[nH]c5ccccc45)C[C@@H]3C(=O)NO)cc2)cc1` [Compound 76, (2R, 4R)-2-Hydroxyaminocarbonyl-4-(3-indolecarbonylamino)-1-[4-(4-methoxyphenyl)benzenesulfonyl]-piperidine], the IC50 in experiment [1] was found to be 12 nM; in experiment [2], 96 nM; in experiment [3], 21 nM. In addition, in experiment [4], the inhibition at 10 µM was 12.9%.

Regarding `CC(C)CCC(=O)N[C@@H]1CCN(S(=O)(=O)c2ccc(-c3ccc(Cl)cc3)cc2)[C@@H](C(=O)NO)C1` [Compound 71, (2R, 4R)-1-[4-(4-Chlorohenyl)benzenesulfonyl]-2-hydroxyaminocarbonyl-4-(4-methylpentanoylamino)-piperidine], the half-inhibitory concentration (IC50) in experiment [1] was 19 nM; in experiment [2] it was 290 nM; in experiment [3], 3.4 nM; in experiment [4] it was 640 nM.

Consider `COc1ccc(OCCCCC(=O)N[C@@H]2CCN(S(=O)(=O)c3ccc(OC)cc3)[C@@H](C(=O)NO)C2)cc1` [Compound 46, (2R, 4R)-2-Hydroxyaminocarbonyl-1-(4-methoxybenzenesulfonyl)-4-[5-(4-methoxyphenoxy)pentanoylamino]-piperidine], for which the IC50 in experiment [1] came to 1.5 nM; in experiment [2] it was 4.3 nM; in experiment [3] it was 0.88 nM; in experiment [4] it was 7600 nM.

As for `COc1ccc(-c2ccc(S(=O)(=O)N3CC[C@H](NC(C)=O)C[C@@H]3C(=O)NO)cc2)cc1` [Compound 82, (2R, 4S)-4-Acetylamino-2-hydroxyaminocarbonyl-1-[4-(4-methoxyphenyl)benzenesulfonyl]-piperidine], the IC50 in experiment [1] was 740 nM; in experiment [2], 1300 nM; in experiment [3], 440 nM. The inhibition at 10 µM in experiment [4] amounted to 0%.

Turning to `COc1ccc(-c2ccccc2S(=O)(=O)N2CC[C@@H](NC(=O)CCC(C)C)C[C@@H]2C(=O)NO)cc1` [Compound 54, (2R, 4R)-2-Hydroxyaminocarbonyl-1-[2-(4-methoxyphenyl)benzenesulfonyl]-4-(4-methylpentanoylamino)-piperidine], the IC50 in experiment [1] was 380 nM; in experiment [2], 200 nM; in experiment [3], 1800 nM. Further, the inhibition at 10 µM in experiment [4] was determined as 45.8%.

`COc1ccc(OCCCCC(=O)N[C@H]2CCN(S(=O)(=O)c3ccc(OC)cc3)[C@H](C(=O)NO)C2)cc1` [Compound 78, (2S, 4S)-2-Hydroxyaminocarbonyl-1-(4-methoxybenzenesulfonyl)-4-[5-(4-methoxyphenoxy)pentanoylamino]-piperidine]: the IC50 came out at 500 nM in experiment [1], 300 nM in experiment [2] and 450 nM in experiment [3]. For the same compound, the inhibition at 10 µM in experiment [4] worked out at 31.1%.

For `COc1ccc(CN[C@@H]2CCN(S(=O)(=O)c3ccc(-c4ccc(OC)cc4)cc3)[C@@H](C(=O)NO)C2)cc1` [Compound 62, (2R, 4R)-2-Hydroxyaminocarbonyl-4-(4-methoxybenzylamino)-1-[4-(4-methoxyphenyl)benzenesulfonyl]-piperidine], the IC50 was found to be 0.93 nM in experiment [1], 45 nM in experiment [2], 3.2 nM in experiment [3] and 870 nM in experiment [4].

With `COc1ccc(C(=O)N[C@@H]2CCN(S(=O)(=O)c3cccs3)[C@@H](C(=O)NO)C2)cc1` [Compound 50, (2R, 4R)-2-Hydroxyaminocarbonyl-4-(4-methoxybenzoylamino)-1-(2-thiophenesulfonyl)-piperidine], the IC50 turned out to be 73 nM in experiment [1], 35 nM in experiment [2], 44 nM in experiment [3] and 8400 nM in experiment [4].

With `COc1ccc(-c2ccc(S(=O)(=O)N3CC[C@@H](NC(C)=O)C[C@@H]3C(=O)NO)cc2)cc1` [Compound 64, (2R, 4R)-4-Acetylamino-2-hydroxyaminocarbonyl-1-[4-(4-methoxyphenyl)benzenesulfonyl]-piperidine], the half-inhibitory concentration (IC50) was found to be 0.91 nM in experiment [1], 8.9 nM in experiment [2], 0.72 nM in experiment [3] and 650 nM in experiment [4].

`CC(C)CCC(=O)N[C@@H]1CCN(S(=O)(=O)c2ccccc2-c2ccc(O)cc2)[C@@H](C(=O)NO)C1` [Compound 55, (2R, 4R)-2-Hydroxyaminocarbonyl-1-[2-(4-hydroxyphenyl)benzenesulfonyl]-4-(4-methylpentanoylamino)-piperidine]: the figures for the IC50 in experiment [1] and in experiment [2] were 2400 nM and 3000 nM, respectively. Besides, the inhibition at 10 µM in experiment [3] (at 10^−5M, read-out: MMP-9 inhibition percent) was found to be 34.8%; in experiment [4], 29.5%.
